The record followed here is article PMC3083654, “Cytotoxic and Antimicrobial Activity of Pseudopterosins and seco-Pseudopterosins Isolated from the Octocoral Pseudopterogorgia elisabethae of San Andrés and Providencia Islands (Southwest Caribbean Sea)” (Marine Drugs, 2011).

Assay [1] deals with Enterococcus faecalis ATCC 10741. Description: Antimicrobial microdilution assay, E. faecalis. In kind it is cell-based. The protocol:
(§1) Compounds isolated from P. elisabethae were tested against a panel of microorganisms including the bacteria Staphylococcus aureus ATCC 375, Enterococcus faecalis ATCC 10741, Pseudomonas aeruginosa ATCC 14210 and the yeast Candida albicans ATCC 14035. Bacterial strains were cultured in Luria-Bertani Broth (LB) and C. albicans was cultured in Sabouraud dextrose broth (SD), for 18 h at 37 °C and 220 rpm in a humidified incubator.
(§2) The antimicrobial activity was determined by a microdilution method (IC50) in 96-well microtiter plates using LB media for bacteria and SD media for the yeast seeded liquid media. In all cases, a pre-inoculated dilution was made with fresh broth. A volume of 180 μL of each microorganism suspension was inoculated in each well (10^5 cells/mL) and mixed with 20 μL of treatment solutions. Stock solutions were prepared by dissolving pure compounds and controls in 20% DMSO and storing at 4 °C. Penicillin G (S. aureus), vancomycin (E. faecalis), gentamicin (P. aeruginosa) and nystatin (C. albicans) were used as positive controls and vehicle (DMSO + media) as blank. The final DMSO concentration used for dissolving the extracts was less than 20%. Controls and test compounds (PsG, PsP, PsQ, PsS, PsT, PsU, 3-O-Ac-PsU, seco-PsJ, seco-PsK and IMNGD) were assayed in duplicate for each of the following concentrations: 64.0, 32.0, 16.0, 4.0, 1.0, 0.25 and 0.06 μg/mL.
(§3) Microplates were incubated for 24 h at 37 °C and optical density was recorded using a BioTek Synergy HT microplate reader to measure the absorbance at 600 nm. For each experiment, correction for background absorbance was made by subtracting the value for OD600 after the compounds were added (time 0 h). Percentages of microorganism survival relative to vehicle control wells (wells containing only microorganism and DMSO) were calculated. The IC50 of the controls were also determined in parallel experiments in order to control for the sensitivity of the standard test organisms.
(§4) Data were normalized and analyzed using non-linear regression to elucidate IC50 values from sigmoidal dose-response curves. Comparison between cell lines and microorganisms used extra sum-of-squares F test to evaluate IC50 between data sets. P < 0.05 was considered as indicative of significance using GraphPad Software, Prism V. 5.0.
On the technique in general: Broth dilution looks for growth in wells or tubes with falling amounts of substance.

The test system of another assay is PC-3 (prostate cancer). Description: MTT cytotoxic assay, PC-3. In kind it is cell-based. Particulars: Homo sapiens, PC-3, 48 h. As for the experimental part: (§5) The cell lines HeLa (cervical cancer), PC-3 (prostate cancer), HCT116 (colorectal cancer), MCF-7 (breast cancer) and normal human cell line BJ (skin fibroblasts) were used and maintained in DMEM with 5% of FBS and gentamicin 50 μg/mL. Cultures were held in 75 cm^2 culture flasks at 37 °C, 5% CO2 and 100% relative humidity, changing media at least twice a week.
(§6) Cells were harvested, counted, and transferred into 96 well plates and incubated for 24 h prior to the addition of the test compounds. Test sample solutions (10 μL) at the desired dilutions were added to the wells containing the cells and incubated for 48 h. Microtitration colorimetric method of MTT reduction was used to determine surviving cells at the end of the treatment period.
(§7) A solution of MTT (0.5 mg/mL) was prepared in PBS and 100 μL of this solution was added to each well after the removal of 100 μL of treatment solution. The plates were incubated at 37 °C for 4 h. The solution in each well, containing media, unmetabolized MTT, and dead cells, was removed by suction and 100 μL of DMSO was added to each well. The DMSO was mixed by pipetting and optical density was recorded using a BioTek Synergy HT microplate reader to measure the absorbance at 570 nm. Percentages of cell survival relative to vehicle control wells (wells containing only cells and DMSO) were calculated.
(§8) Stock solutions (5 mg/mL) were prepared by dissolving pure compounds in DMSO and storing at 4 °C. Serial dilutions with culture media were prepared just prior to addition to test plates. The concentration of DMSO in wells was consistent across dilutions at 0.38% v/v. Staurosporine was used as the positive control and vehicle (DMSO + media) as blank. Control and test compounds (PsG, PsP, PsQ, PsS, PsT, PsU, 3-O-Ac-PsU, seco-PsJ, seco-PsK and IMNGD) were assayed in duplicate for each concentration and replicated for each cell line at concentrations of 5000, 1000, 500, 100, 50, 10, 5 and 1 nM for staurosporine and 0.1, 0.5, 1.0, 2.5, 5.0, 7.5, 10.0, and 20.0 μg/mL for compounds.
as §4
For orientation: Formazan colour is commonly taken as a measure of viable cells.

Assay [2] has as its system HCT116 (colorectal cancer). The assay is described as follows: MTT cytotoxic assay, HCT116. In kind it is cell-based. The following applies: Homo sapiens, HCT-116, HCT116, 48 h. The protocol:
as §5, §6, §7, §8, §4

A further assay concerns BJ (skin fibroblasts). The assay is described as follows: MTT cytotoxic assay, normal BJ cells. Particulars: 48 h. In kind it is cell-based, human. As for the experimental part: as §5, §6, §7, §8, §4
The subject of assay [3] is Staphylococcus aureus ATCC 375. The assay is described as follows: Antimicrobial microdilution assay, S. aureus. Particulars: ATCC375, 24 h. In kind it is cell-based. As for the experimental part:
as §1, §2, §3, §4

The next assay concerns HeLa (cervical cancer). Description: MTT cytotoxic assay, HeLa. In kind it is cell-based. The following applies: Homo sapiens, 48 h. As for the experimental part:
as §5, §6, §7, §8, §4

The test system of another assay is MCF-7 (breast cancer). The assay is described as follows: MTT cytotoxic assay, MCF-7. The following applies: Homo sapiens, MCF7, 48 h. In kind it is cell-based. As for the experimental part:
as §5, §6, §7, §8, §4

Setting [4] is: Enterococcus faecalis, ATCC10741, E. faecalis, microdilution, 24 h, read-out: IC50 ± S.E.

Read-outs that look alike come from different tables or passages of the source. Some results are limits rather than exact numbers.

What is called IC50 is the concentration needed to halve the response being measured. As usually defined, the GI50 is the concentration giving 50% growth inhibition. With `CC(=O)OC1COC(Oc2c(C)c3c4c(c2O)C(C)CCC4C(C)CC3C=C(C)C)C(O)C1OC(C)=O` (centres unmarked) [3-O-Ac-PsU], the IC50 in assay [1] (setting [4]) is 7.64 ± 0.16 µM; in assay [3], 20.23 ± 0.19 µM. For the same molecule, the GI50 in the assay with PC-3 (prostate cancer) is 26.4 ± 0.31 µM; in assay [2], 20.5 ± 0.48 µM; in the assay with BJ (skin fibroblasts), 62.03 ± 0.45 µM; with BJ (skin fibroblasts) (listed as 3-O-acetyl-PsU), over 10 µM; with HeLa (cervical cancer) it was 44.61 ± 0.35 µM; with MCF-7 (breast cancer), 83.93 ± 0.39 µM.

Regarding `CC1(C)S[C@@H]2[C@H](NC(=O)Cc3ccccc3)C(=O)N2[C@H]1C(=O)O` [Penicillin G, penicillin G, reference compound], the 50% inhibitory concentration (IC50) in assay [3] came out at 1.61 ± 0.08 µM.

In the case of `CC(C)=C[C@@H]1C[C@H](C)[C@H]2CC[C@H](C)c3c(O[C@@H]4O[C@@H](C)[C@@H](O)[C@@H](O)[C@@H]4O)c(O)c(C)c1c32` [PsG], the IC50 in assay [1] (setting [4]) was 3.14 ± 0.22 µM; in assay [3], 4.48 ± 0.18 µM. Moreover, the concentration for 50% growth inhibition (GI50) in the assay with PC-3 (prostate cancer) stood at 8.83 ± 0.54 µM; in assay [2] it was 12 ± 0.36 µM; in the assay with BJ (skin fibroblasts) (Homo sapiens, Skin fibroblast), 7.62 ± 0.38 µM; with HeLa (cervical cancer), 9.22 ± 0.45 µM; in the assay on MCF-7 (breast cancer) it was 9.42 ± 0.43 µM.

Turning to `CC(C)=C[C@@H]1C[C@H](C)[C@H]2CC[C@H](C)c3c(O)c(O[C@@H]4O[C@@H](C)[C@@H](O)[C@@H](O)[C@@H]4O)c(C)c1c32` [PsP], the results for the IC50 in assay [1] (setting [4]) and in assay [3] were 37.35 ± 0.29 µM and 14.9 ± 0.2 µM, respectively. The GI50 with PC-3 (prostate cancer) is 13.8 ± 0.58 µM; in assay [2] it was 17.9 ± 0.45 µM; in the assay with BJ (skin fibroblasts) it was 10.4 ± 0.42 µM; in the assay with BJ (skin fibroblasts) (Homo sapiens, Skin fibroblast) it was over 10 µM; in the assay on HeLa (cervical cancer), 10.3 ± 0.49 µM; in the assay on MCF-7 (breast cancer) it was 12.6 ± 0.45 µM.

Regarding `CC(=O)O[C@H]1[C@@H](O)[C@H](O)[C@H](Oc2c(C)c3c4c(c2O)[C@@H](C)CC[C@@H]4[C@@H](C)C[C@H]3C=C(C)C)O[C@H]1C` [PsQ], the results for the IC50 in assay [1] (setting [4]) and in assay [3] were 7.38 ± 0.16 µM and 3.3 ± 0.2 µM, respectively. The GI50 in the assay with PC-3 (prostate cancer) amounted to 7.81 ± 0.35 µM; in assay [2], 7.66 ± 0.27 µM; in the assay on BJ (skin fibroblasts) (Homo sapiens, Skin fibroblast), 4.47 ± 0.31 µM; in the assay on HeLa (cervical cancer) it was 5.82 ± 0.33 µM; in the assay with MCF-7 (breast cancer), 8.44 ± 0.41 µM.

For `CC(=O)O[C@@H]1[C@H](Oc2c(C)c3c4c(c2O)[C@@H](C)CC[C@@H]4[C@@H](C)C[C@H]3C=C(C)C)O[C@@H](C)[C@@H](O)[C@H]1O` [PsS], the IC50 in assay [1] (setting [4]) was found to be 20.2 ± 0.25 µM; in assay [3] it was 3.89 ± 0.23 µM. Also, the GI50 in the assay with PC-3 (prostate cancer) worked out at 52.05 ± 0.31 µM; in assay [2], 33.5 ± 0.33 µM; with HeLa (cervical cancer), 13.8 ± 0.39 µM; with MCF-7 (breast cancer), 26.2 ± 0.45 µM.

As to `CC(C)=C[C@@H]1C[C@H](C)[C@H]2CC[C@H](C)c3c(O)c(O[C@@H]4OC[C@@H](O)[C@@H](O)[C@@H]4O)c(C)c1c32` [PsT], the IC50 in assay [1] (setting [4]) turned out to be 4.38 ± 0.16 µM; in assay [3] it was 5.39 ± 0.25 µM. The GI50 with PC-3 (prostate cancer) was 22 ± 0.46 µM; in assay [2], 24.2 ± 0.42 µM; with BJ (skin fibroblasts) it was 12.9 ± 0.37 µM; in the assay with BJ (skin fibroblasts) (Homo sapiens, Skin fibroblast), over 10 µM; in the assay on HeLa (cervical cancer), 14.6 ± 0.35 µM; in the assay with MCF-7 (breast cancer), 14.7 ± 0.46 µM.

On to `CC(=O)OC1COC(Oc2c(C)c3c4c(c2O)C(C)CCC4C(C)CC3C=C(C)C)C(O)C1O` (centres unmarked) [PsU], for which the IC50 amounted to 3.19 ± 0.25 µM in assay [1] (setting [4]) and 2.97 ± 0.17 µM in assay [3]. The GI50 in the assay with PC-3 (prostate cancer) is 24.8 ± 0.34 µM; in assay [2] it was 23.4 ± 0.4 µM; in the assay on BJ (skin fibroblasts) (Homo sapiens, Skin fibroblast), 9.35 ± 0.34 µM; with HeLa (cervical cancer) it was 15.6 ± 0.32 µM; in the assay on MCF-7 (breast cancer), 26.5 ± 0.46 µM.

With `CN[C@@H]1C[C@H]2O[C@@](C)([C@@H]1OC)n1c3ccccc3c3c4c(c5c6ccccc6n2c5c31)C(=O)NC4` [Staurosporine, staurosporine, reference compound], the GI50 with PC-3 (prostate cancer) (footnote ** unit) worked out at 0.06182 ± 0.00038 µM; in assay [2] (footnote ** unit), 0.04556 ± 0.00045 µM; with BJ (skin fibroblasts) (Homo sapiens, Skin fibroblast, footnote ** unit) it was 0.0136 ± 0.00035 µM; in the assay with HeLa (cervical cancer) (footnote ** unit) it was 0.1056 ± 0.00041 µM; in the assay on MCF-7 (breast cancer) (footnote ** unit), 0.1766 ± 0.00038 µM.

As for `CN[C@H](CC(C)C)C(=O)N[C@H]1C(=O)N[C@@H](CC(N)=O)C(=O)N[C@H]2C(=O)N[C@H]3C(=O)N[C@H](C(=O)N[C@H](C(=O)O)c4cc(O)cc(O)c4-c4cc3ccc4O)[C@H](O)c3ccc(c(Cl)c3)Oc3cc2cc(c3O[C@@H]2O[C@H](CO)[C@@H](O)[C@H](O)[C@H]2O[C@H]2C[C@](C)(N)[C@H](O)[C@H](C)O2)Oc2ccc(cc2Cl)[C@H]1O` [Vancomycin, vancomycin, reference compound], the IC50 in assay [1] (Enterococcus faecalis, ATCC10741, 24 h, read-out: IC50 ± S.E, E. faecalis, microdilution, 24 h) is 4.2 µM; in assay [1] (read-out: IC50 ± S.E, E. faecalis, microdilution, 24 h), 4.21 ± 0.11 µM.

Consider `CC(C)=CCC[C@H](C)[C@H]1CC[C@H](C)c2c1cc(C)c(O[C@@H]1OC[C@@H](O)[C@@H](O)[C@@H]1O)c2O` [seco-PsJ], for which the values for the IC50 in assay [1] (setting [4]) and in assay [3] were 4.08 ± 0.19 µM and 6.52 ± 0.12 µM, respectively. In addition, the GI50 in the assay with PC-3 (prostate cancer) is 37.2 ± 0.41 µM; in assay [2], 31.7 ± 0.32 µM; in the assay with BJ (skin fibroblasts) it was 15 ± 0.35 µM; with BJ (skin fibroblasts) (Homo sapiens, Skin fibroblast) it was over 10 µM; in the assay on HeLa (cervical cancer) it was 21.1 ± 0.37 µM; in the assay with MCF-7 (breast cancer), 28 ± 0.51 µM.

On to `CC(C)=CCC[C@H](C)[C@H]1CC[C@H](C)c2c1cc(C)c(O[C@@H]1O[C@@H](C)[C@@H](O)[C@@H](O)[C@@H]1O)c2O` [seco-PsK], for which the values for the IC50 in assay [1] (setting [4]) and in assay [3] were 3.82 ± 0.21 µM and 4.2 ± 0.16 µM, respectively. In addition, the GI50 with PC-3 (prostate cancer) is 13.6 ± 0.38 µM; in assay [2], 13.3 ± 0.27 µM; in the assay with BJ (skin fibroblasts) (Homo sapiens, Skin fibroblast), 8.28 ± 0.29 µM; in the assay on HeLa (cervical cancer) it was 15.8 ± 0.18 µM; in the assay with MCF-7 (breast cancer), 11.5 ± 0.36 µM.
